Measurements: PMC12673918, “Design, Synthesis, and Selective Antiproliferative Activity of Indolizine Derivatives as Microtubule Destabilizers” (Archiv Der Pharmazie, 2025)
Read-outs that look alike come from different tables or passages of the source.

Tests used:
[1] = tested on: MKN‐45 (gastric carcinoma) cells; conditions: cited from earlier work
[2] = tested on: HGC‐27 (gastric carcinoma); assay: Resazurin cell viability assay, HGC‐27; format: cell-based; conditions: Homo sapiens, HGC-27
Protocol: (§1) The tongue squamous cell carcinoma cell line CAL‐27 (ATCC CRL‐2095), breast carcinoma BT‐20 (ATCC HTB‐19), gastric carcinoma HGC‐27 (BCRJ Code 0310), and normal oral fibroblast OHMF (culture of fibroblasts derived from human oral healthy mucosa, approved by the Research Ethics Committee of the University of São Paulo, Campus of Ribeirão Preto, Brazil (with protocol number 049) were cultured in DMEM medium (DMEM, Sigma‐Aldrich, St. Louis, MO, USA) supplemented with 10% fetal bovine serum and a solution of penicillin (100 U/mL) and streptomycin (100 μg/mL). The cultures were maintained in a humidified incubator with 5% CO₂ at 37°C.
(§2) Cell viability was analyzed using the resazurin assay. For this, cells were seeded in 96‐well plates (1 × 10^3 cells per well) and incubated at 37°C with 5% CO₂ overnight for cell adhesion. Subsequently, the cells were treated with different compounds (0–50 µM) for 72 h. After treatment, the medium was replaced with phenol‐free DMEM medium (Sigma‐Aldrich) containing resazurin at a concentration of 44 µM (Sigma‐Aldrich). After incubation for 4 h at 37°C, fluorescence detection was performed (excitation 530/25 nm, emission 590/35 nm) using a microplate fluorimeter (Synergy 2, Biotek). Initial cell growth inhibition assays were performed in triplicate or quadruplicate, while IC50 determinations were conducted in triplicate. Data were plotted, and IC₅₀ values were determined by nonlinear regression using GraphPad Prism software 9.0.
(§3) ^a Cell viability was assessed using the resazurin assay after 72 hours of compound treatment. Fluorescence was measured to estimate % of cellular growth inhibition at 50 µM values, based on triplicate experiments.
(§4) ^b IC50 values were determined using the same resazurin-based assay, with fluorescence measurements performed after 72 hours of treatment. These experiments were carried out in triplicate.

BT‐20 (breast carcinoma) = assay: Resazurin cell viability assay, BT‐20; format: cell-based; conditions: Homo sapiens, BT-20
Protocol: as §1, §2, §3, §4

CAL‐27 (oral carcinoma) = assay: Resazurin cell viability assay, CAL‐27; format: cell-based; conditions: Homo sapiens, CAL-27
Protocol: as §1, §2, §3, §4

[3] = tested on: stomach carcinoma cell line (NUGC3); design: method as in PMID 15293996, PMID 23237054; conditions: cited from earlier work
tubulin [4] = assay: Tubulin polymerization (inhibition) assay kit; format: biochemical; conditions: for IC50: n = 2
Protocol: To evaluate the effect of the compounds on tubulin polymerization, the Tubulin Polymerization Assay Kit (Cytoskeleton Inc.) was used according to the manufacturer's instructions. Briefly, 5 µL of the compounds (final concentration ranging from 0.1 to 100 µM) were pipetted per well into a pre‐warmed 96‐well black‐bottom plate at 37°C. After 1 min, 55 µL of the tubulin reaction mix (1X Buffer 1, 0.7X Tubulin Glycerol Buffer, 1 mM GTP, and 2 mg/mL tubulin) was added to each well. Next, after 5 s of shaking, fluorescence detection (excitation: 340–360 nm, emission: 410–460 nm) was performed using a microplate fluorimeter. […] Data were plotted, and IC₅₀ values were determined by nonlinear regression using GraphPad Prism software 9.0.
^c Tubulin polymerization was evaluated using a commercial assay kit, following standard procedures. Compounds were incubated with tubulin, and fluorescence was measured over time to generate kinetic curves and determine the maximum polymerization rate (Vmax). These experiments were carried out in duplicate.

tubulin [5] = tested on: tubulin; design: method as in PMID 37895970; conditions: read-out: IC50 for tubulin destabilization (literature); cited from earlier work
GNP15 = assay: Resazurin cellular growth inhibition, GNP15; format: cell-based; conditions: 72 hours, triplicate; read-out: IC50 (nM, Cellular growth inhibition) GNP15 (supplement)
Protocol: as §4

[6] = tested on: BT‐20 breast cancer cells; assay: Cell‐cycle assay by flow cytometry; format: cell-based; conditions: 2.5 µM, 24 h
Protocol: BT‐20 cells were seeded in 10 cm plates (1.5 × 10⁶ cells/plate) and incubated at 37°C with 5% CO₂ for 24 h. Subsequently, the cells were treated with different compounds at a concentration of 2.5 µM for 24 h. After treatment, the cells were collected by centrifugation and fixed in cold 70% ethanol for 1 h at 4°C. The cells were then washed, collected by centrifugation, and treated with RNase A (100 μg/mL, Sigma‐Aldrich) for 30 min at 37°C, followed by staining with propidium iodide (50 μg/mL) for 15 min at 37°C. Finally, the percentages of cells in each phase of the cell cycle were determined using FACSCalibur flow cytometry (BD Biosciences—San Jose, CA, USA). Cell‐cycle distribution was analyzed using ModFit LT V3.3 software.

[7] = tested on: OHMF (non‐tumoral oral fibroblast); assay: Resazurin cell viability assay, OHMF fibroblasts; format: cell-based; conditions: Homo sapiens, 72 h, n = 3
Protocol: as §1, §2

[8] = 72 h, mean ± SD, n = 3, read-out: IC50 (nM) HGC‐27
[9] = 72 hours, triplicate, read-out: IC50 (nM, Cellular growth inhibition) HGC-27 (supplement)
[10] = 72 h, mean ± SD, n = 3, read-out: IC50 (nM) BT‐20
[11] = 72 hours, triplicate, read-out: IC50 (nM, Cellular growth inhibition) BT-20 (supplement)
[12] = 72 h, mean ± SD, n = 3, read-out: IC50 (nM) CAL‐27
[13] = 72 hours, triplicate, read-out: IC50 (nM, Cellular growth inhibition) CAL-27 (supplement)

| SMILES | IC50 [2, 8] [nM] | IC50 [2, 9] [nM] | IC50 (BT‐20 (breast carcinoma); [10]) [nM] | IC50 (BT‐20 (breast carcinoma); [11]) [nM] | IC50 (CAL‐27 (oral carcinoma); [12]) [nM] | IC50 (CAL‐27 (oral carcinoma); [13]) [nM] | IC50 (tubulin [4]) [µM] | growth inhibitory activity against NUGC3 [3] | other results |
| --- | --- | --- | --- | --- | --- | --- | --- | --- | --- |
| COc1ccc(N(C)c2nc(C)nc3ccccc23)cc1 [Verubulin, reference compound] | 3 ± 0.4 | 5 ± 0.7 | 5 ± 0.7 | 2 ± 0.3 | 2 ± 0.3 | 3 ± 0.4 | 3.2 |  | IC50 (tubulin [5]): 3200 ± 700 nM |
| COc1ccc(/C=C\c2cc(OC)c(OC)c(OC)c2)cc1O [Combretastatin A-4, combretastatin A‐4] |  |  |  |  |  |  |  | no appreciable effect |  |

Now from value to molecule, other results behind:

| IC50 [2, 8] [nM] | IC50 [2, 9] [nM] | IC50 (BT‐20 (breast carcinoma); [10]) [nM] | IC50 (BT‐20 (breast carcinoma); [11]) [nM] | IC50 (CAL‐27 (oral carcinoma); [12]) [nM] | IC50 (CAL‐27 (oral carcinoma); [13]) [nM] | IC50 (tubulin [4]) [µM] | SMILES | growth inhibitory activity against NUGC3 [3] | other results |
| --- | --- | --- | --- | --- | --- | --- | --- | --- | --- |
| 5 ± 1.4 | 45 ± 7 | 4 ± 1.1 | 3 ± 0.6 | 2 ± 0.1 | 48 ± 16 |  | COc1ccc2c(C(=O)c3cc(OC)c(OC)c(OC)c3)c[nH]c2c1 [BPR0L075, reference compound] | demonstrated growth inhibitory activity | fold improvement in antiproliferative activity over combretastatin A‐4 ([1]; MKN‐45 cells): > 10 fold |
| 48 ± 16 | 4 ± 1.1 | 45 ± 7 | 2 ± 0.1 | 3 ± 0.6 | 5 ± 1.4 | 8.2 | CC(=O)O[C@H]1C(=O)[C@@]2(C)[C@H]([C@H](OC(=O)c3ccccc3)[C@]3(O)C[C@H](OC(=O)[C@H](O)[C@@H](NC(=O)c4ccccc4)c4ccccc4)C(C)=C1C3(C)C)[C@]1(OC(C)=O)CO[C@@H]1C[C@@H]2O [Paclitaxel, reference compound] |  | inhibition at 2 µM ([2]; 2 μM, 72 h, mean ± SD, read-out: % Cellular growth inhibition HGC‐27, positive control): 46 ± 1.8%; inhibition at 50 µM ([2]; 72 hours, triplicate, read-out: % Cellular growth inhibition (at 50 µM) HGC-27 (supplement)): 46 ± 1.8%; inhibition at 2 µM (BT‐20 (breast carcinoma); 2 μM, 72 h, mean ± SD, read-out: % Cellular growth inhibition BT‐20, positive control): 50 ± 1%; inhibition at 50 µM (BT‐20 (breast carcinoma); 72 hours, triplicate, read-out: % Cellular growth inhibition (at 50 µM) BT-20 (supplement)): 50 ± 1%; effect on tubulin polymerization curves (RFU) (tubulin [4]; compounds 5 µM, vs control and paclitaxel): promoted rapid and sustained polymerization; inhibition at 2 µM (CAL‐27 (oral carcinoma); 2 μM, 72 h, mean ± SD, read-out: % Cellular growth inhibition CAL‐27, positive control): 54 ± 1.2%; inhibition at 50 µM (CAL‐27 (oral carcinoma); 72 hours, triplicate, read-out: % Cellular growth inhibition (at 50 µM) CAL-27 (supplement)): 54 ± 1.2% |
| 475 ± 105 | 111 ± 28 | 111 ± 28 | 105 ± 21 | 105 ± 21 | 475 ± 105 | 14.8 | COc1ccc2c(C(=O)c3cc(OC)c(OC)c(OC)c3)ccn2c1 [Compound 7f, (6‐methoxyindolizin‐1‐yl)(3,4,5‐trimethoxyphenyl)methanone] |  | IC50 (GNP15): > 50000 nM; IC50 ([1]; MKN‐45 gastric cancer cells): 80 nM; inhibition at 50 µM ([2]; 72 h, mean ± SD, n = 3, read-out: % Cellular growth inhibition (at 50 µM) HGC‐27): 43 ± 0.7%; cell‐cycle distribution [6]: significant accumulation of cells in the G2/M phase; inhibition at 50 µM (BT‐20 (breast carcinoma); 72 h, mean ± SD, n = 3, read-out: % Cellular growth inhibition (at 50 µM) BT‐20): 43 ± 0.8%; IC50 [7]: > 50000 nM; inhibition at 50 µM (CAL‐27 (oral carcinoma); 72 h, mean ± SD, n = 3, read-out: % Cellular growth inhibition (at 50 µM) CAL‐27): 58 ± 1.3% |
